Laboratory results: patent US8507460B2, “Substituted 3′,5′-cyclic phosphates of purine nucleotide compounds and pharmaceutical compositions for the treatment of viral infections” (priority 2011, dated 2013)

Key:
HCV genotype 1b replicon = test: HCV Replicon Assay (Zluc luciferase reporter); assay type: cell-based
Procedure: Huh-7-derived cell line (Zluc) that harbors an HCV genotype 1b replicon and a luciferase reporter gene was grown in Dulbecco's Modified Eagle Medium (DMEM) supplemented with 10% fetal bovine serum, 2 mM GlutaMAX, 1% MEM nonessential amino acids, 100 IU/mL penicillin, 100 μg/mL streptomycin, and 0.5 mg/mL Geneticin® (G418). For dose response testing the cells were seeded in 96-well plates at 7.5×10^3 cells per well in a volume of […], and incubated at 37° C./5% CO2. Drug solutions were made up freshly in Huh-7 media as 2× stocks. […] 5-fold dilutions were prepared from these stocks in DMEM without G418. At least three hours after Zluc cells were seeded, drug treatment was initiated by adding 50 μL of drug dilutions to the plates in duplicate. Final concentrations of drug ranged from 100 μM to 0.0000512 μM. Cells were then incubated at 37° C./5% CO2. Alternatively, compounds were tested at two concentrations (1 μM and 10 μM). […] After 72 hours of incubation, the inhibition of HCV replication was measured by quantification of photons emitted after mono-oxygenation of 5′-fluoroluciferin to oxyfluoroluciferin by firefly luciferase. For this, media was removed from the plates via gentle tapping. Fifty microliters of ONE-glo luciferase assay reagent was added to each well. The plates were shaken gently for 3 min at room temperature and luminescence was measured on a Victor^3 V 1420 multilabel counter (Perkin Elmer) with a 1 second read time using a 700 nm cut-off filter. The EC50 values were calculated from dose response curves from the resulting best-fit equations determined by Microsoft Excel and XLfit 4.1 software. When screening at two fixed concentrations, the results were expressed as % inhibition at 1 μM and 10 μM.

Zluc cells = test: Cytotoxicity evaluation, CellTiter-Blue Cell Viability Assay; assay type: cell-based; conditions: read-out: HCV Replicon CC50
Procedure: For cytotoxicity evaluation, Zluc cells were treated with compound as described above, and cell viability was monitored using the CellTiter-Blue Cell Viability Assay (Promega) by adding 20 μL of the assay solution to each well. The plates were then incubated at 37° C./5% CO2 for at least 3 hours.

[1] = Stability in simulated gastric and intestinal fluids; assay type: in vitro ADME; conditions: 100 μM, 2 hours at 37° C., percent of peak area at time zero
Procedure: Simulated gastric and intestinal fluids containing pepsin and pancreatin respectively were prepared according to the U.S. Pharmacopoeia USP291 procedure (www.pharmacopeia.cn/v29240/usp29nf24s0_ris1s126.html). Test compound (final concentration 100 μM) was incubated in duplicate in the appropriate fluid for 2 hours at 37° C. The samples were quenched with 200 μl cold acetonitrile, vortexed for 30 seconds and then centrifuged at 16,100 g for 10 min. The supernatants were analyzed by HPLC on a C-18 column with UV detection at 252 nm. The time 0 samples were prepared by adding SGF or SIF fluid to the quenching solvent followed by the test compound. Stability of the compound was determined by peak area the test compound after incubation and calculated as percent of the peak area observed at time zero.

[2] = Stability in fresh human whole blood; assay type: in vitro ADME; conditions: 0.5 μM, percent unchanged
Procedure: (§1) Stability of test compounds were determined in fresh human whole blood with K2EDTA as the anticoagulant (stored refrigerated at 2-8° C. and used within 7 days of receipt). The experiment was conducted with three replicates for each time point. Whole blood, pre-incubated at 37° C. for 10-15 minutes, was fortified with a solution of test compound for a final concentration of 0.5 μM and mixed for 30 sec. At intervals (0, 0.5, 1 and 2 hr), three […] aliquots were combined with 200 μL (each) of an ice-cold solution of the internal standard (carbutamide 500 ng/mL in acetonitrile). The samples were vortexed for 30 sec and then centrifuged at 16,100 g for 5 min. The supernatant was analyzed by LC-MS/MS. The MS peak area ratio of the test compound versus the internal standard was calculated and percent unchanged test compound was calculated for each time point using this ratio.

Stability in mouse blood = assay type: in vitro ADME; conditions: mouse whole blood, on ice, percent unchanged
Procedure: as §1
The stability in mouse blood was determined on ice at 0, 0.5 and 1 hr as above.

[3] = Stability in rat whole blood; assay type: in vitro ADME
[4] = Stability in liver and intestinal subcellular fractions (microsomes and S9); assay type: in vitro ADME, human; conditions: 10 μM, NADPH, 60 min, percent unchanged
Procedure: Stability of test compounds were determined in subcellular fractions (microsomes and S9) of human liver and intestine in duplicate for each matrix. Pooled liver and intestinal microsomal, intestinal and liver S9 proteins (1.0 mg/mL), suspended in incubation buffer (100 mM potassium phosphate, pH […], and 0.1 mM EDTA), were preincubated for 5 min at 37° C. with 10 μM of a test compound from a 10 mM stock solution in DMSO (final DMSO concentration was 0.1%); the reaction was initiated by the addition of NADPH (3 mM final concentration). At specific times (0 and 60 min), 0.1 mL samples were taken and the reaction terminated by the addition of 4 volumes of stop solution (acetonitrile with 500 ng/mL carbutamide as an internal standard). The samples were vortexed for 30 sec and then centrifuged at 16,000 g for 10 min. 100 μL of supernatants were transferred to 96 deep-well plates preloaded with 100 μL distilled water and analyzed after mixing by LC-MS/MS. The MS peak area ratio of the test compound versus the internal standard was calculated and percent unchanged test compound over 60 minutes was calculated using this ratio.

fresh human hepatocytes = test: Release of active metabolite in fresh human hepatocytes; assay type: in vitro ADME; conditions: 10 μM
Procedure: Plates of fresh human and mouse hepatocytes were obtained on ice. The medium was removed and replaced with hepatocyte culture medium (William's E supplemented with penicillin-streptomycin, 1% L-glutamine, 1% insulin-transferrin-selenium and 0.1 μM Dexamethasone (Invitrogen) or with Invitro GRO HI medium complemented with Torpedo antibiotics (Celsis)). Cells were left overnight in an incubator at 37° C. to acclimatize to culture and the medium.
Hepatocyte incubations were conducted at a final volume of 0.5 mL hepatocyte culture medium/well (0.8 million cells/well for human and 0.5 million cells/well for mouse; 12 well plate no overlay, collagen coat). Culture medium from overnight incubation of cells was removed and replaced with fresh medium, pre-warmed to 37° C., containing 10 μM of test compound from a stock solution in DMSO (final DMSO concentration was 0.1%). At each specific time point, incubation medium was removed and cell monolayers were carefully washed two times with ice-cold PBS. Following the last wash, all PBS was carefully removed and 1.0 mL of extraction solution (ice-cold 70% methanol/30% water) added. Cells were scraped off and suspended in the extraction solution, transferred to 2 mL polypropylene microfuge tubes and intracellular contents extracted overnight at −20° C.
After the overnight treatment the cellular extracts were prepared by centrifugation at 16,000×g for 10 min to remove cellular debris. The remaining sample was then dried using a refrigerated centrivap concentrator. Dry extracts were reconstituted in 1000 μL of HPLC-grade water and centrifuged at 16,000×g for 10 min. Aliquots (100 μL each) of the supernatant were transferred into a 96 well plate and internal standard (4 ng/mL final concentration) was added as the internal standard (IS) for LC-MS/MS analysis.
The incubation time points were 6, 24 and 48 hours for human hepatocytes and 1, 4, 8, 12 and 24 hours for mouse hepatocytes.

SMILES: CCOc1nc(N)nc2c1ncn2[C@@H]1O[C@@H]2COP(=O)(OC(C)C)O[C@H]2[C@@]1(C)O (single isomer, unassigned) [Compound 1b]
- selectivity index (HCV genotype 1b replicon; HCV replicon assay, Zluc cells): greater than 80
- EC50 (HCV genotype 1b replicon; Zluc cells (Huh-7-derived, HCV genotype 1b replicon, luciferase reporter), 72 hours): 1 to 10 µM
- CC50 (Zluc cells): > 50 µM
- Stability SGF ([1]; simulated gastric fluid with pepsin): 99%
- Stability SIF ([1]; simulated intestinal fluid with pancreatin): 101%
- Stability WB_Human (37° C.; 2 hr) [2]: 103%
- Stability WB_Mouse (ice; 1 hr) (Stability in mouse blood): 96%
- Stability WB_Rat (ice; 1 hr) [3]: 96%
- Stability HIS9 (1 hr) ([4]; HIS9 1.0 mg/mL): 104%
- Stability HIM (1 hr) ([4]; human intestinal microsome 1.0 mg/mL): 102%
- Stability HLS9 (1 hr) ([4]; human liver S9 fraction 1.0 mg/mL): 112%
- Stability HLM (1 hr) ([4]; human liver microsome 1.0 mg/mL): 96%
- FHH TP (6 hr) (fresh human hepatocytes; 6 hr): BLD^a
- FHH TP (24 hr) (fresh human hepatocytes; 24 hr): BLD^a
